In ChEMBL document CHEMBL3593229, “Identification of a potent 5-phenyl-thiazol-2-ylamine-based inhibitor of FLT3 with activity against drug resistance-conferring point mutations” (Eur J Med Chem, 2015):
Activity calls are given as the source filed them. No cut-off for these calls is given here.

Legend:
U-937 = experiment: cells; type: functional; conditions: Homo sapiens, U-937, 72 h
Description: Cytotoxicity against FLT3-deficient human U937 cells assessed as cell growth inhibition after 72 hrs by MTS assay

[1] = target: Platelet-derived growth factor receptor alpha (Homo sapiens) (UniProt P16234); experiment: Inhibition of human PDGFRalpha at 0.1 uM relative to control
Platelet-derived growth factor receptor alpha (Homo sapiens), sequence (P16234 whole entry): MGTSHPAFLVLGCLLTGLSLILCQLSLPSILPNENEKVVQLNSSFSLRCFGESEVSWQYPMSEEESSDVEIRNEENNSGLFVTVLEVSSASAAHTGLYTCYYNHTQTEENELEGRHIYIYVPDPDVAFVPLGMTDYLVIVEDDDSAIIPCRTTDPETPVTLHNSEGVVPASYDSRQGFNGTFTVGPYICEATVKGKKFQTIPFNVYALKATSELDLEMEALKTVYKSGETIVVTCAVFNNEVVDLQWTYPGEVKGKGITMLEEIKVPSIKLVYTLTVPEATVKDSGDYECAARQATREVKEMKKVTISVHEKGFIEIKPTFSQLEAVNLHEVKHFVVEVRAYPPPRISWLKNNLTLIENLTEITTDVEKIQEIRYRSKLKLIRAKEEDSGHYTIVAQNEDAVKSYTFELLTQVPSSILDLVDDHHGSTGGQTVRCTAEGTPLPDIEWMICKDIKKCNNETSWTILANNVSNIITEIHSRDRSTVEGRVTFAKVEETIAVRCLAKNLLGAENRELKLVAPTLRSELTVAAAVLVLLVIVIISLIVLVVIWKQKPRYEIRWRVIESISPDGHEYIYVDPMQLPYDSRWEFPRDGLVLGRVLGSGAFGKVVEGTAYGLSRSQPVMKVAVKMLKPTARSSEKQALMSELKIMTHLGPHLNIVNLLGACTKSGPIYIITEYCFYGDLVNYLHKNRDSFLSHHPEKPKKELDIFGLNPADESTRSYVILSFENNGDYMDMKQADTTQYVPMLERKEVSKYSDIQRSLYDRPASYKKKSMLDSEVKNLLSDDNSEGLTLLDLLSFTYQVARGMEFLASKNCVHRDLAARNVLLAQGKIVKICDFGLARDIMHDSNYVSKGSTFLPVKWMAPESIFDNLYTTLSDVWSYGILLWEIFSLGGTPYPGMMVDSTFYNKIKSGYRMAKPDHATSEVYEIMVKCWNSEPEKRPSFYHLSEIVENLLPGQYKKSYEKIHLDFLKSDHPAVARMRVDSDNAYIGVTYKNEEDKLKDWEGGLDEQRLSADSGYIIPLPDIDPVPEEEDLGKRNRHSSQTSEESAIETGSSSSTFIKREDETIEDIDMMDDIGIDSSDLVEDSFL

[2] = target: Macrophage colony-stimulating factor 1 receptor (Homo sapiens) (UniProt P07333); experiment: Inhibition of human CSF1R at 0.1 uM relative to control
[3] = tested on: Receptor-type tyrosine-protein kinase FLT3 (Homo sapiens), P36888 [D835Y]; experiment: Inhibition of human FLT3 D835Y mutant at 0.1 uM relative to control
[4] = target: Aurora kinase B (Homo sapiens) (UniProt Q96GD4); experiment: Inhibition of human AURKB at 0.1 uM relative to control
[5] = target: High affinity nerve growth factor receptor (Homo sapiens) (UniProt P04629); experiment: Inhibition of human NTRK1 at 0.1 uM relative to control
[6] = target: Tyrosine-protein kinase Blk (Homo sapiens) (UniProt P51451); experiment: Inhibition of human BLK at 0.1 uM relative to control
[7] = target: Tyrosine-protein kinase Yes (Homo sapiens) (UniProt P07947); experiment: Inhibition of human YES1 at 0.1 uM relative to control
[8] = target: Interleukin-1 receptor-associated kinase 4 (Homo sapiens) (UniProt Q9NWZ3); experiment: Inhibition of human IRAK4 at 0.1 uM relative to control
[9] = target: Tyrosine-protein kinase BTK (Homo sapiens) (UniProt Q06187); experiment: Inhibition of human BTK at 0.1 uM relative to control
Tyrosine-protein kinase BTK (Homo sapiens), sequence (Q06187 whole entry): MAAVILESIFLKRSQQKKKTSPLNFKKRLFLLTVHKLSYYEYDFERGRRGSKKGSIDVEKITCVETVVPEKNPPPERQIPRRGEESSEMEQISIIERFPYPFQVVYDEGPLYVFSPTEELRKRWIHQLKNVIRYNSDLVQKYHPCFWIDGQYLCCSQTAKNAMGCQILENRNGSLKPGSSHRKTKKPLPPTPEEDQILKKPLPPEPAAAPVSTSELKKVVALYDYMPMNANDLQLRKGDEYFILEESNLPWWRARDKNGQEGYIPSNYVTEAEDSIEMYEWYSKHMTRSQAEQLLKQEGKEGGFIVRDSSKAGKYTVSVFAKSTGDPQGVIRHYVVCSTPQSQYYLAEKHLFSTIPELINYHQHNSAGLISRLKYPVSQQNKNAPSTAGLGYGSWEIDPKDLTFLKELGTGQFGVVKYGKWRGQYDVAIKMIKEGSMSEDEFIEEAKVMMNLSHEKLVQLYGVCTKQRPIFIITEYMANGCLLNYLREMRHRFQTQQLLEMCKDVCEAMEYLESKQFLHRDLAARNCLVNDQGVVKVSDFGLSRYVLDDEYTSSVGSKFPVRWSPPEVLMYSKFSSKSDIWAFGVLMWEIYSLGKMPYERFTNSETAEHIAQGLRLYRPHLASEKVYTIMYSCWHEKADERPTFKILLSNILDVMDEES

[10] = target: Serine/threonine-protein kinase B-raf (Homo sapiens) (UniProt P15056); experiment: Inhibition of human BRAF at 0.1 uM relative to control
[11] = target: Serine/threonine-protein kinase Nek1 (Homo sapiens) (UniProt Q96PY6); experiment: Inhibition of human NEK1 at 0.1 uM relative to control
Serine/threonine-protein kinase Nek1 (Homo sapiens), sequence (Q96PY6 whole entry): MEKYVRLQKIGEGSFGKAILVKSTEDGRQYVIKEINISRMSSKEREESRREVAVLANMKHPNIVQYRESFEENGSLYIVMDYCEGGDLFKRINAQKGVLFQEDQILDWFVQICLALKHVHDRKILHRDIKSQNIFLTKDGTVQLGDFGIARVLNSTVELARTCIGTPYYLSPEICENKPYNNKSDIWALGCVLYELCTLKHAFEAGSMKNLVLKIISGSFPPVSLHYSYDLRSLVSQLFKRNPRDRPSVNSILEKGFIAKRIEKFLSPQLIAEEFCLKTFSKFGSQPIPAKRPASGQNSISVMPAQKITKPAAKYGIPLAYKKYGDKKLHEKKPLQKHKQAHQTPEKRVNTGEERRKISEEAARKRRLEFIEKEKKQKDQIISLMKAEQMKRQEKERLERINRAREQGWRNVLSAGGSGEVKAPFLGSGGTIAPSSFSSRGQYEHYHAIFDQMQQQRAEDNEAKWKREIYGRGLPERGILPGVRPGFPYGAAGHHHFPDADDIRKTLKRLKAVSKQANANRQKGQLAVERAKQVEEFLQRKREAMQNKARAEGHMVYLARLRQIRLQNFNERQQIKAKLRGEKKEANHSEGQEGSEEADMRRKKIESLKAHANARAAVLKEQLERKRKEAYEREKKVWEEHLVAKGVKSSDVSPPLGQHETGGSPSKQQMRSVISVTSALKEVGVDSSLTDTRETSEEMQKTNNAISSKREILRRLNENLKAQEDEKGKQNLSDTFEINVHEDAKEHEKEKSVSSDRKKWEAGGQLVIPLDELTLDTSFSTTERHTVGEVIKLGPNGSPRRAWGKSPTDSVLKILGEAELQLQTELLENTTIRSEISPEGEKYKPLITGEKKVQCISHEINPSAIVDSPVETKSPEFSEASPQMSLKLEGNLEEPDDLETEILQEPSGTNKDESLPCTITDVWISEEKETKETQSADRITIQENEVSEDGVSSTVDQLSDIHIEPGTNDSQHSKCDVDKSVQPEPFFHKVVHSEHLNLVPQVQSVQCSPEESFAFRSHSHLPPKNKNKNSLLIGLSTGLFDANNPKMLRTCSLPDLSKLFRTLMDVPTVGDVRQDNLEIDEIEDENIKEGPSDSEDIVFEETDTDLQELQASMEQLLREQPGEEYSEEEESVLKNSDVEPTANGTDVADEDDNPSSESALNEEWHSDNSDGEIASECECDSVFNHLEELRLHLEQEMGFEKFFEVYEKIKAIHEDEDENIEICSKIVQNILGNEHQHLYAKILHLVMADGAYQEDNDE

[12] = target: Ribosomal protein S6 kinase beta-1 (Homo sapiens) (UniProt P23443); experiment: Inhibition of human RPS6KB1 at 0.1 uM relative to control
Ribosomal protein S6 kinase beta-1 (Homo sapiens), sequence (P23443 whole entry, looked up): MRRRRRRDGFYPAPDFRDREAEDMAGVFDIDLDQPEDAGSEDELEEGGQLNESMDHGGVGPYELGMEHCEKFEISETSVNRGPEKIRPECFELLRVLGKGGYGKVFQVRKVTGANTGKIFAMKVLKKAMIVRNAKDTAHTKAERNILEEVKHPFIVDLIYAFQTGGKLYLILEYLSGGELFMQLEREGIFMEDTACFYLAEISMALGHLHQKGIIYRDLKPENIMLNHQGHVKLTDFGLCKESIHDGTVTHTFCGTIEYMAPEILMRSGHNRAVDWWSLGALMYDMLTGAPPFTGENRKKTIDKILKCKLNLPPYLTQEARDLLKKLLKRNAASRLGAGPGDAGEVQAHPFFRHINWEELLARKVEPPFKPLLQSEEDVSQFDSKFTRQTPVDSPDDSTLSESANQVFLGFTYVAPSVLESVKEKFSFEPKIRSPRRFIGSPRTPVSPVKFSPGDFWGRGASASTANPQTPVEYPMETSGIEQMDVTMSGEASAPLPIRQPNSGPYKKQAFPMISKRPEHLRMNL

[13] = target: Mitogen-activated protein kinase 14 (Homo sapiens) (UniProt Q16539); experiment: Inhibition of human MAPK14 at 0.1 uM relative to control
[14] = target: Fibroblast growth factor receptor 1 (Homo sapiens) (UniProt P11362); experiment: Inhibition of human FGFR1 at 0.1 uM relative to control
[15] = target: Dual specificity protein kinase CLK1 (Homo sapiens) (UniProt P49759); experiment: Inhibition of human CLK1 at 0.1 uM relative to control
Dual specificity protein kinase CLK1 (Homo sapiens), sequence (P49759 whole entry, looked up): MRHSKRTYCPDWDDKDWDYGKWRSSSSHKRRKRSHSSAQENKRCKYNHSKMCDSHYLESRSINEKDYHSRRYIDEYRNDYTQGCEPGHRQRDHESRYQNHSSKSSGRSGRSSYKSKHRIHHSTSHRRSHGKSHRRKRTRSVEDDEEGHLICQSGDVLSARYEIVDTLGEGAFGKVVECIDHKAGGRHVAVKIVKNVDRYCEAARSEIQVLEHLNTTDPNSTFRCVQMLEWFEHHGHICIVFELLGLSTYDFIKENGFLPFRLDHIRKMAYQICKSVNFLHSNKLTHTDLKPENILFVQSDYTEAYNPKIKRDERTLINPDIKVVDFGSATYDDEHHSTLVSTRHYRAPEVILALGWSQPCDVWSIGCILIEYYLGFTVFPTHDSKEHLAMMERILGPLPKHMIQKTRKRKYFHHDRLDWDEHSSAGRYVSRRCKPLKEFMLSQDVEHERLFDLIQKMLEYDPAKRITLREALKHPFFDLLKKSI

[16] = target: Receptor tyrosine-protein kinase erbB-2 (Homo sapiens) (UniProt P04626); experiment: Inhibition of human HER2 at 0.1 uM relative to control
[17] = target: Serine/threonine-protein kinase Chk2 (Homo sapiens) (UniProt O96017); experiment: Inhibition of human CHK2 at 0.1 uM relative to control
Serine/threonine-protein kinase Chk2 (Homo sapiens), sequence (O96017 whole entry): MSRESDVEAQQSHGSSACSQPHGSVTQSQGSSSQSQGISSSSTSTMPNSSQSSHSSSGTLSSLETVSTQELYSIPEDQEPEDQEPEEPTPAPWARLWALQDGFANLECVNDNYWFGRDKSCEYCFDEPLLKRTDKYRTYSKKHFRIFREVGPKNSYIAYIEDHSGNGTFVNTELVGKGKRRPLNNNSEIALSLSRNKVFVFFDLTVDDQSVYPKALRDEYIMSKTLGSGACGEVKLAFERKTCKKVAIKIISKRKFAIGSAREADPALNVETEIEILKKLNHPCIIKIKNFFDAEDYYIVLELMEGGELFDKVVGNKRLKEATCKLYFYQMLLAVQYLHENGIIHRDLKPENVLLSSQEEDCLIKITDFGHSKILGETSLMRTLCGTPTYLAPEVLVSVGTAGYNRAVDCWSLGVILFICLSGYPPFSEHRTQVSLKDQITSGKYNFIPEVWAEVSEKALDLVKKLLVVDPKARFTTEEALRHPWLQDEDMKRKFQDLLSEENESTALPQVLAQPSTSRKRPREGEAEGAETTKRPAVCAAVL

[18] = target: Macrophage-stimulating protein receptor (Homo sapiens) (UniProt Q04912); experiment: Inhibition of human RON at 0.1 uM relative to control
[19] = target: Tyrosine-protein kinase JAK2 (Homo sapiens) (UniProt O60674); experiment: Inhibition of human JAK2 at 0.1 uM relative to control
[20] = target: Serine/threonine-protein kinase mTOR (Homo sapiens) (UniProt P42345); experiment: Inhibition of human mTOR at 0.1 uM relative to control
[21] = target: Serine/threonine-protein kinase Sgk3 (Homo sapiens) (UniProt Q96BR1); experiment: Inhibition of human SGKL at 0.1 uM relative to control
Serine/threonine-protein kinase Sgk3 (Homo sapiens), sequence (Q96BR1 whole entry): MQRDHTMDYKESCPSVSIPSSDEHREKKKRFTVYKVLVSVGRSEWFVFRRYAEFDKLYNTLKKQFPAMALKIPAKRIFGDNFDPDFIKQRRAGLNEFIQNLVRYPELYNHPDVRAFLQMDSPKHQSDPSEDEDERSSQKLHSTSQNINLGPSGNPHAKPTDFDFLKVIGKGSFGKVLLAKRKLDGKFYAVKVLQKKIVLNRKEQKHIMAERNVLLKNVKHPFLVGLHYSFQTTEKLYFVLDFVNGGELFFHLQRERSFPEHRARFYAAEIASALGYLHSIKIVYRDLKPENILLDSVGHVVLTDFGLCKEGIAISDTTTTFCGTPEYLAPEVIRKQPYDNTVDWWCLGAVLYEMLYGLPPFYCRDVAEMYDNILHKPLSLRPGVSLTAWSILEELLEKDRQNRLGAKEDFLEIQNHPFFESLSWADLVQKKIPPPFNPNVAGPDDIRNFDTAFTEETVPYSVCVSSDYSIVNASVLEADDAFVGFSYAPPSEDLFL

[22] = target: Receptor-type tyrosine-protein kinase FLT3 (Homo sapiens, UniProt P36888, F691L); experiment: Inhibition of FLT3 ITD F691L mutant (unknown origin) phosphorylation expressed in HEK293T cells preincubated for 1 hr followed by FLT3 ligand addition for 5 mins by Western blot analysis; type: cell-based, HEK-293T
[23] = Plasma clearance in ICR mouse at 2 mg/kg, iv; type: ADME, organism-based
[24] = Volume of distribution at steady state in ICR mouse at 2 mg/kg, iv; type: ADME, organism-based; conditions: in vivo, read-out: Vdss
[25] = Cmax in ICR mouse at 10 mg/kg, po; type: ADME, organism-based; set-up: dose 10 mg/kg, route oral; conditions: in vivo
MV4-11 [26] = experiment: Antitumor activity against human MV4-11 cells xenografted in nude mouse assessed as tumor growth inhibition at 10 mg/kg, po qd administered on day 1 to 5 measured during compound dosing; type: functional, organism-based
MV4-11 [27] = experiment: Antitumor activity against human MV4-11 cells xenografted in nude mouse assessed as tumor growth inhibition at 25 mg/kg, po qd administered on day 8 to 12 measured during compound dosing; type: functional, organism-based
Mus musculus [28] = experiment: Antitumor activity against human MOLM13 cells xenografted in SCID mouse assessed as increase in survival at 10 mg/kg, po qd administered on day 1 to 5 relative to vehicle-treated control; type: functional, MOLM-13
Mus musculus [29] = experiment: Toxicity in nude mouse allografted with mouse 32D cells expressing FLT3 ITD D835Y mutant at 10 mg/kg/day, po administered 5 days on/2 days off schedule for 4 weeks measured daily during compound dosing; type: organism-based; conditions: in vivo
[30] = tested on: Receptor-type tyrosine-protein kinase FLT3 (Homo sapiens), P36888 [UNDEFINED MUTATION]; conditions: MOLM-13
Description: Inhibition of FLT3 ITD heterozygous mutant in human MOLM-13 cells assessed as cell growth inhibition after 72 hrs by MTS assay

[31] = tested on: Receptor-type tyrosine-protein kinase FLT3 (Homo sapiens), P36888 [D835V]

CCc1cc(NC(=O)Nc2ccc(-c3cnc(Nc4cc(N5CCN(CC)CC5)nc(C)n4)s3)cc2)no1
GI50 (U-937): 1100 nM | inhibition [1]: 98% | inhibition [2]: 94% | inhibition [3]: 87% | inhibition [4]: 85% | inhibition [5]: 82% | inhibition [6]: 78% | inhibition [7]: 72% | inhibition [8]: 61% | inhibition [9]: 46% | inhibition [10]: 36% | inhibition [11]: 23% | inhibition [12]: 22% | inhibition [13]: 10% | inhibition [14]: 10% | inhibition [15]: 5% | inhibition [16]: 0% | inhibition [17]: -3% | inhibition [18]: -3% | inhibition [19]: -3% | inhibition [20]: -7% | inhibition [21]: -8% | IC50 [22]: 10 nM | clearance [23]: 4.92 L/h/kg | Vd [24]: 21 L/kg | Cmax [25]: 0.168 µg/mL | TGI (MV4-11 [26]): Active | TGI (MV4-11 [27]): Active | Activity (Mus musculus [28]): 45% | Activity (Mus musculus [29]): Non-toxic | GI50 [30]: 2 nM | GI50 [31]: 4 nM
